ChEMBL document CHEMBL1132268, “Non-thiol 3-aminomethylbenzamide inhibitors of farnesyl-protein transferase” (Bioorg Med Chem Lett, 1999)
Values after ≈ are worked out from the molar mass of the structure shown.

Assays:
[1] = target: Geranylgeranyl transferase type I (Homo sapiens, UniProt P49354+P53609); experiment: Inhibition of geranylgeranyl transferase I (GGTase-I); format: protein-complex assay
[2] = target: Protein farnesyltransferase (Homo sapiens, UniProt P49354+P49356); experiment: Inhibition of [3H]FPP incorporation into recombinant Ha-Ras by bovine brain farnesyltransferase; format: functional, Bos taurus
Rat1 [3] = experiment: Inhibition of v-raf (Raf1a1) transformed RAT1 cell colony size and number in soft agar assay; format: functional; details: Rattus norvegicus
Rat1 [4] = experiment: Inhibition of v-Ha-ras (Ras2B) transformed RAT1 cell colony size and number in soft agar assay; format: functional; details: Rattus norvegicus
Rat1 [5] = experiment: Minimal cytotoxic effect (<10%) in RAT1 cell viability assay; format: functional, Rattus norvegicus
NIH3T3 = experiment: Inhibition of the post-translational prenylation of Ha-Ras protein in cultured NIH3T3 cells in a protein processing assay; format: functional, cell-based; details: Mus musculus

Compound	IC50 [1]	IC50 [2]	MIC (Rat1 [3])	MIC (Rat1 [4])	CTE (Rat1 [5])	IC50 (NIH3T3)
CSCC[C@H](NC(=O)c1cccc(CN(Cc2ccc(C#N)cc2)Cc2cnc[nH]2)c1)C(=O)O	6.2 µM	0.012 µM	–	–	–	–
COC(=O)[C@H](CCSC)NC(=O)c1cccc(CN(Cc2ccc(C#N)cc2)Cc2c[nH]cn2)c1	–	–	> 10 µM	10 µM (≈ 4.92 µg/mL)	>=50 uM	–
COC(=O)[C@H](CCSC)NC(=O)c1cccc(CNCc2cncn2Cc2ccc(C#N)cc2)c1	–	–	> 10 µM	10 µM (≈ 4.92 µg/mL)	25 µM	–
CCCCN(Cc1cccc(C(=O)N[C@@H](CCSC)C(=O)OC)c1)Cc1cncn1Cc1ccc(C#N)cc1	–	–	> 10 µM	> 10 µM	25 µM	–
CSCC[C@H](NC(=O)c1cccc(CN(Cc2cnc[nH]2)Cc2cnc[nH]2)c1)C(=O)O	17 µM	0.87 µM	–	–	–	–
COC(=O)[C@H](CCSC)NC(=O)c1cccc(CN(Cc2ccc(C#N)cc2)Cc2cncn2Cc2ccc(C#N)cc2)c1	–	–	> 10 µM	≤ 1 µM	25 µM	~5 µM
